Like-named read-outs stand apart in the source and are kept apart here. Marks after values point to notes of the source that are not given here.
Tests used:
[1] = cited from earlier work
[2] = tested on: Mammary gland HCC38 cells; assay: CyQUANT-NF proliferation assay, 48-h drug treatment; assay type: cell-based; conditions: 48-h treatment, amifostine ND = not definable up to 500 µM
[3] = tested on: Mammary gland MDA-MB-231 cells; assay: as above; assay type: cell-based; conditions: Homo sapiens, MDA-MB-231; 48-h treatment; amifostine ND = not definable up to 500 µM
Procedure: Since the BRG prodrugs are composed of WR1065 as one of the major constituents, assays were conducted to determine if factors reported to modulate the activity of amino acid and polyamine plasma membrane transport systems impacted the efficacy of 4SP65 or 1LP65 in selected cancer cell lines. HL60 cells were exposed to 4SP65 with up to 0.5 mM NaCl, MBA-MD-231 cells were tested in the presence and absence of medium supplemented with estradiol plus insulin (in the BulletKit™ for growth supplements for NHMECs), HCC38 cells were exposed to 4SP65 with and without 10 µM insulin added to the growth medium, and multiple cells lines were pretreated for 24 h with 1 mM DFMO prior to starting exposures to 4SP65.
(§1) The percentage of growth inhibition was calculated as follows: […]

A549 NSCLC cells = assay: cells
Procedure: as §1

[4] = tested on: Malignant pleural mesothelioma PPMMill cells; assay: cells; conditions: 48 h
Procedure: as §1

NCI-H1975 NSCLC cells = assay: cells; conditions: Homo sapiens, NCI-H1975, 48 h
Procedure: as §1

Ovary SKOV3 cells [5] = assay: cells
Procedure: as §1

Ovary TOV21G cells = assay: cells
Procedure: as §1

Pancreas PANC-1 cells [6] = assay: cells; conditions: Homo sapiens, PANC-1, 48 h
Procedure: as §1

Prostate DU145 cells [7] = assay: cells; conditions: Homo sapiens, DU-145, 48 h
Procedure: as §1

Prostate LNCaP cells = assay: cells; conditions: Homo sapiens, LNCaP, 48 h
Procedure: as §1

Prostate PC3 cells [8] = assay: cells
Procedure: as §1

human cancer cell lines = assay: cells; conditions: for cytolytic effects: exposure levels up to 500 µM, 48 h; for GI50: Homo sapiens
Procedure: as §1

[9] = tested on: human Hec50co (p53-null) endometrial tumor xenografts; conditions: single agent; cited from earlier work
Lung A549 cells [10] = tested on: Lung A549 cells; parameters: method as in PMID 29258181, PMID 12507923, PMID 35770045, PMID 31488557; conditions: cited from earlier work
Lung NCI-H460 cells [11] = tested on: Lung NCI-H460 cells; parameters: method as in PMID 29258181, PMID 12507923, PMID 35770045, PMID 31488557; conditions: cited from earlier work
[12] = tested on: Mammary gland MDA-MB-231 cells; parameters: method as in PMID 29258181, PMID 12507923, PMID 35770045, PMID 31488557; conditions: cited from earlier work
Ovary SKOV3 cells [13] = tested on: Ovary SKOV3 cells; parameters: method as in PMID 29258181, PMID 12507923, PMID 35770045, PMID 31488557; conditions: cited from earlier work
Pancreas PANC-1 cells [14] = tested on: Pancreas PANC-1 cells; parameters: method as in PMID 29258181, PMID 12507923, PMID 35770045, PMID 31488557; conditions: cited from earlier work
[15] = tested on: Malignant pleural mesothelioma HMESO1 cells; conditions: drug alone, 48 h, 4SP65/cisplatin study
Procedure: as §1

NCI-H460 NSCLC cells = conditions: drug alone, 48 h, 4SP65/cisplatin study
Description: To test anticancer effectiveness of individual drugs or drug combinations, the CyQUANT®-NF proliferation assay was used with a plate reader (i) to generate standard curves for cell numbers for each cell line, (ii) to measure the starting cell numbers at initiation of drug treatment, and (iii) to obtain fluorescence readings from cells in 96-well plates for comparisons to a standard curve for the relevant cancer cell line and quantifying cell viability after drug treatments. […] Trypan blue exclusion was used to estimate cell numbers in a few pilot experiments and thereafter was applied to confirm very low viable cell numbers and cell death.
A series of experiments was conducted to determine the relative efficacy of 4SP65, 1LP65, and amifostine as single agents in the same human cancer cell lines.
Five metrics were calculated and used to characterize the shape of the dose-response curve following exposure to a single test agent. Using cell numbers based on fluorescence measurements and standard curves, the percentage growth was calculated at each drug concentration level. The percentage of growth inhibition was calculated as follows:
where Tz = cell numbers or fluorescence counts at time xero, C = vehicle-exposed control cell numbers at the end of the assessment time period, and Ti = test agent-exposed cell numbers or fluorescence counts at each drug concentration. […] The LC50/99 was calculated using Equation 2 = -50 and Eq. 2 = -99, respectively. […] For NHMECs, the relationships between drug exposure levels and fluorescence units were used to define dose-response metrics. The selectivity index values for individual drugs were calculated using IC50 levels in NHMECs divided by the IC50 value for each cancer cell line. Statistical comparisons of differences in individual dose-response metrics between drug treatments and cell lines were conducted using Student’s t-test, with P-values <0.05 considered significant.
Relative cell growth inhibition values for differing levels of each drug alone and in combination were input into SynergyFinder to generate dose-response curves for each drug alone and to produce a dose-response matrix. The dose-response matrix data then were used in generating a two-dimension heatmap and three-dimension volcano plot to visualize the distribution of areas of differing degrees of synergism and to calculate average and maximum synergy scores in selected human cancer cell lines. The expected drug combination responses were calculated using both the Highest Single Agent (HSA) model and the Zero interaction potency (ZIP) model.

Prostate DU145 cells [16] = tested on: Prostate DU145 cells; parameters: method as in NCI Database of Screening Results; conditions: ref NCI Database of Screening Results; cited from earlier work
Lung A549 cells [17] = conditions: cited from earlier work; for GI50 / TGI: ref NCI Database of Screening Results
Lung NCI-H460 cells [18] = conditions: cited from earlier work; for GI50 / TGI: ref NCI Database of Screening Results
[19] = tested on: Mammary gland MDA-MB-231 cells; conditions: cited from earlier work; for GI50: ref NCI Database of Screening Results
Prostate PC3 cells [20] = conditions: cited from earlier work
Ovary SKOV3 cells [21] = conditions: cited from earlier work; for GI50 / TGI: ref NCI Database of Screening Results
[22] = tested on: Acute promyelocytic HL60 leukemia cells; conditions: cited from earlier work
[23] = tested on: temperature-dependent p53 mutants; parameters: method as in PMID 11429700, PMID 11870884, PMID 22710932, PMID 17724467; conditions: 11 temperature-dependent mutants analyzed; cited from earlier work
Lung NCI-H1975 cells = tested on: Lung NCI-H1975 cells; parameters: method as in PMID 29258181, PMID 12507923, PMID 35770045, PMID 31488557; conditions: cited from earlier work
[24] = tested on: Acute promyelocytic HL60 leukemia cells; parameters: method as in PMID 29258181, PMID 12507923, PMID 35770045, PMID 31488557; conditions: cited from earlier work
[25] = ND = not definable, highest concentration in parentheses
[26] = drug alone, 48 h, 4SP65/cisplatin study
[27] = drug alone, 4SP65/cisplatin study
[28] = drug alone, 4SP65/cisplatin study, ND = not definable, highest concentration in parentheses
[29] = drug alone, 48 h, 4SP65/cisplatin study, ND = not definable, highest concentration in parentheses
[30] = ref NCI Database of Screening Results

COc1cc2ncnc(Nc3ccc(F)c(Cl)c3)c2cc1OCCCN1CCOCC1 [GEF, gefitinib, reference compound]
trough levels ([1]; 250 mg daily, after 3 days of treatment): 0.257−4.50 µM | trough levels ([1]; 250 mg daily, after 8 days of treatment): 0.282−6.55 µM | Cmax ([1]; 250 mg daily, printed 'or more', read-out: Cmax plasma concentrations): 500 to 1000 nM | elimination half-life [1]: 48 h

NCCCNCCSP(=O)(O)O [Amifostine, amifostine, reference compound]
TGI [2]: 254 ± 123 µM | GI50 ([2]; Homo sapiens, HCC38): 78.1 ± 35.7 µM | IC50 ([2]; Homo sapiens, HCC38): 276 ± 92 µM | GI50 [3]: 241 ± 130 µM | GI50 (A549 NSCLC cells; Homo sapiens, A549, 48 h): 241 ± 130 µM | IC50 (A549 NSCLC cells; Homo sapiens, A549, 48 h): 261 ± 120 µM | GI50 ([4]; Homo sapiens): 378 ± 122 µM | GI50 (NCI-H1975 NSCLC cells): 130 ± 26 µM | GI50 (Ovary SKOV3 cells [5]; Homo sapiens, SK-OV-3, 48 h): 81 ± 13 µM | IC50 (Ovary SKOV3 cells [5]; Homo sapiens, SK-OV-3, 48 h): 294 ± 119 µM | GI50 (Ovary TOV21G cells; Homo sapiens, TOV21G, 48 h): 47 ± 10 µM | IC50 (Ovary TOV21G cells; Homo sapiens, TOV21G, 48 h): 57 ± 9 µM | GI50 (Pancreas PANC-1 cells [6]): 113 ± 39 µM | GI50 (Prostate DU145 cells [7]): 126 ± 28 µM | IC50 (Prostate DU145 cells [7]): 319 ± 105 µM | GI50 (Prostate LNCaP cells): 150 ± 47 µM | IC50 (Prostate LNCaP cells): 378 ± 122 µM | TGI (Prostate PC3 cells [8]; 48-h treatment, amifostine ND = not definable up to 500 µM): 301 ± 115 µM | GI50 (Prostate PC3 cells [8]; Homo sapiens, PC-3, 48 h): 53 ± 10 µM | IC50 (Prostate PC3 cells [8]; Homo sapiens, PC-3, 48 h): 103 ± 15 µM | LC50 (human cancer cell lines): Not definable ^k | cancer cell lines with limited cytostatic effects (human cancer cell lines; 14 cell lines): 11/14 | cytolytic effects (human cancer cell lines; 14 cell lines): no cytolytic effects | cytolytic effects (human cancer cell lines; 14 cell lines, listed as amifostine): not found in any cell line | LC99 (human cancer cell lines; 14 cell lines, highest concentration 500 µM): Not definable ^k | GI50 (human cancer cell lines; read-out: GI50 average, GI50 values >100 µM in 7/14 cell lines): 149 µM | GI50 (human cancer cell lines; read-out: GI50 range, GI50 values <100 µM in 4/14 cell lines: HCC38, PC3, SKOV3, TOV21G): 47 to 81 µM | GI50 (human cancer cell lines; read-out: GI50 range, seven of 14 cell lines): 113 to 378 µM | GI50 (human cancer cell lines; read-out: average GI50, four cell lines where amifostine GI50 <100 µM): 64.8 µM | TGI average (human cancer cell lines; only two cell lines, HCC38 and PC3): 278 ± 24 ^j µM | inhibition of tumor xenograft growth compared to tumor size at start of treatment [9]: ~ 50%

O=C1C2CCN(CC2)C1(CO)CO [PRIMA-1]
GI50 (Lung A549 cells [10]): 63 µM | GI50 (Lung NCI-H460 cells [11]): 40 µM | IC50 [12]: 141 µM | GI50 (Ovary SKOV3 cells [13]): 63 µM | IC50 (Pancreas PANC-1 cells [14]): 66 µM

N.N.[Cl][Pt][Cl] [Cisplatin, cisplatin, reference compound]
GI50 [15]: 3000 ± 400 nM | IC50 [15]: 8.6 ± 1.1 µM | TGI [15]: 6.7 ± 0.7 µM | LC99 [15, 25]: ND (>15) µM | gains of cytostatic and cytolytic activities, range (A549 NSCLC cells; 4SP65-cisplatin combined): 1.7- to 3.5 fold | LC99, drug in combination (CMB) (A549 NSCLC cells; amount of each drug in combination, ratio 50% 4SP65:50% DDP, 48 h): 7 µM | GI50 (A549 NSCLC cells; [26]): 3.5 ± 0.7 µM | IC50 (A549 NSCLC cells; [26]): 4.7 ± 0.8 µM | LC99 (A549 NSCLC cells; [26]): 24.4 ± 2.6 µM | TGI (A549 NSCLC cells; [26]): 8.2 ± 1.0 µM | GI50 [4, 27]: 27.2 ± 3.4 µM | IC50 [4, 27]: 40.5 ± 8.1 µM | LC99 [4, 28]: ND (>100) µM | TGI [4, 28]: ND (>100) µM | GI50 (Ovary SKOV3 cells [5]; [26]): 5.3 ± 0.4 µM | IC50 (Ovary SKOV3 cells [5]; [26]): 6.7 ± 0.6 µM | LC99 (Ovary SKOV3 cells [5]; [29]): ND (>21) µM | TGI (Ovary SKOV3 cells [5]; [29]): ND (>21) µM | gains in total growth inhibition and cytolytic effects, range (Ovary TOV21G cells; 4SP65-cisplatin combined): 1.3- to 2.9 fold | LC99, drug in combination (CMB) (Ovary TOV21G cells; amount of each drug in combination, ratio 14% 4SP65:86% DDP, 48 h): 5.9 µM | GI50 (Ovary TOV21G cells; [26]): 2.2 ± 0.4 µM | IC50 (Ovary TOV21G cells; [26]): 3 ± 0.3 µM | LC99 (Ovary TOV21G cells; [26]): 17.2 µM | TGI (Ovary TOV21G cells; [26]): 6.7 ± 0.3 µM | LC99 (Ovary TOV21G cells; drug alone, 48 h, 4SP65/cisplatin study, listed as DDP): 17.2 ± 5.2 µM | gains of cytostatic and cytolytic activities, range (human cancer cell lines; 4SP65-cisplatin combined, H460, HMESO1, PPMMill, SKOV3): 1.7- to 6.9 fold | GI50 (NCI-H460 NSCLC cells): 3.1 ± 0.1 µM | IC50 (NCI-H460 NSCLC cells): 4 ± 0.1 µM | LC99 (NCI-H460 NSCLC cells; [25]): ND (>15) µM | TGI (NCI-H460 NSCLC cells; [25]): ND (>15) µM | GI50 (Prostate DU145 cells [16]): 2000 nM | GI50 (Lung A549 cells [17]): 3.8 µM | TGI (Lung A549 cells [17]): >100 µM | GI50 (Lung NCI-H460 cells [18]): 0.6 µM | TGI (Lung NCI-H460 cells [18]): >100 µM | GI50 [19]: 22.4 µM | GI50 (Prostate PC3 cells [20]; [30]): 5 µM | GI50 (Ovary SKOV3 cells [21]): 2500 nM | TGI (Ovary SKOV3 cells [21]): >100 µM

CC(=O)O[C@H]1C(=O)[C@@]2(C)[C@H]([C@H](OC(=O)c3ccccc3)[C@]3(O)C[C@H](OC(=O)[C@H](O)[C@@H](NC(=O)c4ccccc4)c4ccccc4)C(C)=C1C3(C)C)[C@]1(OC(C)=O)CO[C@@H]1C[C@@H]2O [Paclitaxel, paclitaxel]
GI50 (Prostate DU145 cells [16]): 1900 nM | TGI (Prostate DU145 cells [16]): >100 µM | inhibition of tumor xenograft growth compared to tumor size at start of treatment [9]: ~ 50% | CC50 (Lung A549 cells [17]): > 100 µM | GI50 (Lung A549 cells [17]): 9.2 µM | TGI (Lung A549 cells [17]): >100 µM | CC50 (Lung NCI-H460 cells [18]): > 100 µM | GI50 (Lung NCI-H460 cells [18]): 5.8 µM | TGI (Lung NCI-H460 cells [18]): 90.4 µM | CC50 [22]: > 100 µM | GI50 [22, 30]: 25.8 µM | TGI [22, 30]: >100 µM | CC50 [19]: > 100 µM | GI50 [19]: 6.4 µM | CC50 (Prostate PC3 cells [20]): > 100 µM | GI50 (Prostate PC3 cells [20]; [30]): 36.4 µM | TGI (Prostate PC3 cells [20]; [30]): >100 µM | CC50 (Ovary SKOV3 cells [21]): > 100 µM | GI50 (Ovary SKOV3 cells [21]): 520 nM | TGI (Ovary SKOV3 cells [21]): 5.2 µM

NCCCNCCS [WR1065, 2-[(3-aminopropyl)amino]ethanethiol]
p53 mutants reactivated to some degree [23]: 8/11

COCC1(CO)C(=O)C2CCN1CC2 (stereo not drawn) [APR-246]
IC50 (Lung A549 cells [10]): 29 µM | IC50 (Lung NCI-H460 cells [11]): 225 µM | IC50 (Lung NCI-H1975 cells): 9.6 µM | IC50 [24]: ~20 µM | IC50 (Ovary SKOV3 cells [13]): 16.7 µM

— paper PMC10419174, “WR1065 conjugated to thiol-PEG polymers as novel anticancer prodrugs: broad spectrum efficacy, synergism, and drug resistance reversal” (Frontiers in Oncology, 2023)
